{"source": "patent US11331271B2", "about": "“Buccal, sublingual and intranasal delivery of fospropofol” (The Johns Hopkins University, priority 2016, dated 2022)", "key": {"[1]": {"assay": "Pharmacokinetic studies in rats: fospropofol and propofol in plasma after IV, PO or ID fospropofol", "details": "for F of fospropofol (vs 5 mg/kg IV) / F of propofol (vs 5 mg/kg IV fospropofol): rats", "procedure": "Male Sprague-Dawley rats (Charles River, Md., USA) weighing 200-250 g were used, unless otherwise noted. Animals were housed in groups of three-inch suspended polycarbonate cages (18-inches long, 9-inches wide and 9-inches high) under a 12-h light/dark cycle. Food (Harlan/Teklab) and water (filtered and delivered via an automatic watering system) were provided ad libitum. All procedures were conducted in compliance with the laws, regulations and guidelines of the National Institutes of Health (NIH/PHS) and with approval from the local Animal Care and Use committee.\nFor animal studies, a fospropofol dosing solution was made by dissolving powder in water (for oral and intra-duodenal administration) or saline (for intravenous administration) into an administration volume of 1 or 2 mL/kg, as noted.\nMale Sprague-Dawley rats (225-250 g) underwent implantation with indwelling jugular vein catheters for plasma sampling. Animals receiving intravenous (IV) drug administration also underwent femoral vein catheterization and, after full recovery were attached to an electronic infusion pump and administered vehicle or various concentrations of fospropofol in 1 mL total volume by gradual constant rate infusion over 10 min. Intraduodenal (ID) administration was via previously implanted catheters (HILLTOP Labs, PA) in a constant volume of 2 mL/kg body weight, by slow infusion. Oral administration (PO) was performed via a curved bulb-tipped feeding gavage tube attached to a syringe inserted carefully through the oesophagus via the side of the mouth of manually restrained rats using an administration volume of 1 mL/kg. On the day of testing, control blood samples were taken from the jugular vein prior to dosing of test compounds in conscious rats. In these studies, intravenous doses were based on previously reported behavioral and pharmacokinetic studies with fospropofol. The PO and ID doses were established based on preliminary experiments with behavioral observation, using higher doses based on lower expected oral bioavailability.\nAfter fospropofol administration, blood samples (0.5 mL) were taken at 5, 15, 30, 45, 60, 120, 240 and 360 min post dose. An equivalent volume of blood taken from donor rats of the same strain was administered after each blood sample withdrawal, in an effort to maintain blood volume as previously described (Skrajnar, et al., 2009; Moghaddam, et al., 2002; Choi, et al., 2007). Approximately 0.05 mL of 200 mg/mL of sodium orthovanadate (SOV) solution was added to the heparinized blood collection tubes prior to blood collection to prevent ex vivo conversion via alkaline phosphatases (ALP). The blood samples were mixed, cooled and subsequently centrifuged at 3,000 rpm and 4° C. for 10 min within 30 min of collection. Plasma samples were stored at −20° C. until analysis.\nFor fospropofol analysis, fospropofol-d6 (internal standard prepared in 1.0 M ammonium acetate buffer) was added to the plasma samples (rat or human: 0.05 mL) and subsequently extracted using a solid phase extraction (SPE). The SPE cartridges were conditioned by gravity with methanol and 1.0 M ammonium acetate solution in water. The plasma samples with internal standard were loaded on the cartridges, washed with water and 10% methanol/water and eluted with methanol. The tubes were then evaporated under nitrogen and the residues reconstituted with 50/50 methanol/25 mM ammonium acetate in deionized water. The sample extract was then injected onto a reversed phase HPLC Zorbax Eclipse XDB-C18 column. The separated analytes were detected using tandem mass spectrometry (MS/MS) detection."}, "[2]": {"assay": "Human Study 1: absolute bioavailability, plasma pharmacokinetics of fospropofol and propofol", "format": "in vivo", "details": "for Tmax / bioavailability / half-life: male, human, plasma; for half-life: read-out: mean t1/2 of fospropofol (converted)", "procedure": "In human study 1, fospropofol disodium was formulated as a sterile aqueous solution at a concentration of 20 mg/mL. Each vial provided contained 20 mL of solution, suitable for intravenous injection. Fospropofol was administered as a single dose of 400 mg orally, directly into the duodenum by gastroscopy or intravenously over 10 min. In human study 2, fospropofol disodium in capsules (200 mg) or matching placebo was administered orally.\nThe first study was an absolute bioavailability study of fospropofol conducted at a single center (PRA Health Sciences) in Groningen, Netherlands, as a three-way crossover study. The study enrolled 7 healthy male volunteers between 18 and 45 years of age inclusive, with a body mass index between 18 and 28 kg/m^2. Subjects stayed in the clinical unit for three consecutive periods of 3 days each, with a 3-day washout, between periods. For six subjects, the order of the administration routes was as follows—period 1: PO, period 2: ID, and period 3: IV. For one subject the order of the administration routes was the following—period 1: ID, period 2: IV and period 3: PO. In this study a single dose of 400 mg was administered by each route. Blinding and placebo control was impractical due to the requirement of unsedated endoscopic administration of fospropofol into the duodenum. Safety and overall pharmacodynamic effect was evaluated based on adverse events, vital signs, electrocardiogram (ECG), Modified Observer's Assessment of Alertness/Sedation (OAA/S) score, clinical laboratory tests, and physical examination.\nIn the first study, 6 mL blood samples were collected following the PO and ID fospropofol treatment periods at times of pre-dose, 5, 10, 20, 30, 45, 60, 90 min and 2, 4, 6 and 9 h post-dose and in the IV fospropofol treatment period at pre-dose and at 5, 10, 15, 20, 30, 45, 60 and 120 min post-dose. In the second study a 6 mL blood sample was collected following each fospropofol PO dose (200, 600, 1,000 and 1,200 mg) at pre-dose, 5, 10, 20, 30, 45, 60, 90 min and 2, 4, 6 and 9 h post-dose. The blood was collected in a sodium heparin vacutainer tube containing 60 mg SOV, inverted approximately eight times to dissolve SOV and placed on dry ice until it was centrifuged at 3,000 rpm for 10 min at 4° C. to harvest plasma. Plasma samples were then stored at −20° C. until analysis.\nThe parameters were summarized using descriptive statistics."}, "[3]": {"assay": "Stability in rat plasma at −20° C.", "format": "in vitro ADME", "quoted_text": "The SPE cartridges were conditioned by gravity with methanol and 1.0 M ammonium acetate solution in water. The plasma samples with internal standard were loaded on the cartridges, washed with water and 10% methanol/water and eluted with methanol. The tubes were then evaporated under nitrogen and the residues reconstituted with 50/50 methanol/25 mM ammonium acetate in deionized water. The sample extract was then injected onto a reversed phase HPLC Zorbax Eclipse XDB-C18 column. The separated analytes were detected using tandem mass spectrometry (MS/MS) detection. […] The assays were linear with correlation coefficient of (R^2)>0.99 over the range of 10-2,000 ng/mL for rat plasma and 5-1,000 ng/mL for human plasma.\nIn brief, 4-[tert-octyl] phenol, (internal standard) was added to the plasma samples (0.05 mL for rat or 0.2 mL for human) and extracted using a 3M Empore C-18-SD 4 mm SPE cartridge (Millipore, Billerica, Mass., USA). […] The final eluants (˜0.3 mL) were diluted with 0.3 mL of water, and injected onto an HPLC system equipped with a C-18 analytical column (5 μm, 150×3.9 mm) and fluorescence detector set at excitation and emission wave lengths of 275 and 310 nm, respectively. […] All rat and human study samples in this study were analyzed without exceeding the stability sample integrity during validation of the methods."}, "[4]": {"assay": "Intranasal delivery of fospropofol in monkeys: plasma and CSF levels", "format": "in vivo, monkey", "procedure": "More particularly, in this example, monkeys were dosed with 50 mg fospropofol by intranasal administration. Plasma and cerebrospinal fluid (CSF) were collected before treatment (graphed as t=0), 15 minutes, 30 minutes, 1 hr, and 2 hr. Samples were analyzed for propofol and fospropofol by LC/MS. […] These samples are near the limit of quantification. FIGS. 11A and 11B show the data in nM and ng/mL scales, respectively."}, "[5]": {"details": "male, Sprague-Dawley, rat, plasma, 30 mg/kg"}, "[6]": {"details": "male, Sprague-Dawley, rat, plasma, 100 mg/kg"}, "[7]": {"details": "male, Sprague-Dawley, rat, plasma, iv, 5 mg/kg"}, "[8]": {"details": "male, Sprague-Dawley, rat, plasma, po, 20 mg/kg"}, "[9]": {"details": "male, Sprague-Dawley, rat, plasma, po, 100 mg/kg"}}, "note": "Read-outs that look alike come from different tables or passages of the source."}
{"compound": "CC(C)c1cccc(C(C)C)c1OCOP(=O)(O)O", "note": "[fospropofol]", "values": [{"measurement": "AUC(0-inf)", "setting": "[1]; [5]", "result": 50, "unit": "ng·h/mL"}, {"measurement": "AUC(0-t)", "setting": "[1]; [5]", "result": 44, "unit": "ng·h/mL"}, {"measurement": "Cmax", "setting": "[1]; [5]", "result": 170, "unit": "ng/mL"}, {"measurement": "half-life", "setting": "[1]; [5]", "result": 12.6, "unit": "min"}, {"measurement": "AUC(0-inf)", "setting": "[1]; [6]", "result": 650, "unit": "ng·h/mL"}, {"measurement": "AUC(0-t)", "setting": "[1]; [6]", "result": 644, "unit": "ng·h/mL"}, {"measurement": "Cmax", "setting": "[1]; [6]", "result": 3740, "unit": "ng/mL"}, {"measurement": "half-life", "setting": "[1]; [6]", "result": 13.8, "unit": "min"}, {"measurement": "AUC(0-inf)", "setting": "[1]; [7]", "result": 3150, "unit": "ng·h/mL"}, {"measurement": "AUC(0-t)", "setting": "[1]; [7]", "result": 3150, "unit": "ng·h/mL"}, {"measurement": "Cmax", "setting": "[1]; [7]", "result": 16300, "unit": "ng/mL"}, {"measurement": "Vd", "setting": "[1]; [7]", "result": 1.02, "unit": "L/kg"}, {"measurement": "clearance", "setting": "[1]; [7]", "result": 23, "unit": "mL/min/kg"}, {"measurement": "half-life", "setting": "[1]; [7]", "result": 29.4, "unit": "min"}, {"measurement": "AUC(0-inf)", "setting": "[1]; [8]", "result": 60, "unit": "ng·h/mL"}, {"measurement": "AUC(0-t)", "setting": "[1]; [8]", "result": 50, "unit": "ng·h/mL"}, {"measurement": "Cmax", "setting": "[1]; [8]", "result": 230, "unit": "ng/mL"}, {"measurement": "half-life", "setting": "[1]; [8]", "result": 11.4, "unit": "min"}, {"measurement": "AUC(0-inf)", "setting": "[1]; [9]", "result": 2180, "unit": "ng·h/mL"}, {"measurement": "AUC(0-t)", "setting": "[1]; [9]", "result": 2160, "unit": "ng·h/mL"}, {"measurement": "Cmax", "setting": "[1]; [9]", "result": 9230, "unit": "ng/mL"}, {"measurement": "half-life", "setting": "[1]; [9]", "result": 29.4, "unit": "min"}, {"measurement": "F of fospropofol (vs 5 mg/kg IV)", "setting": "[1]; fospropofol 20 mg/kg PO", "result": 0.448, "unit": "%"}, {"measurement": "F of fospropofol (vs 5 mg/kg IV)", "setting": "[1]; fospropofol 30 mg/kg ID", "result": 0.264, "unit": "%"}, {"measurement": "F of fospropofol (vs 5 mg/kg IV)", "setting": "[1]; fospropofol 100 mg/kg ID", "result": 1.03, "unit": "%"}, {"measurement": "F of fospropofol (vs 5 mg/kg IV)", "setting": "[1]; fospropofol 100 mg/kg PO", "result": 3.46, "unit": "%"}, {"measurement": "fospropofol Cmax, fold lower than IV", "setting": "[2]; 400 mg ID vs IV", "result": "~534", "unit": "fold"}, {"measurement": "plasma fospropofol by non-intravenous routes", "setting": "[2]; 400 mg PO or ID", "result": "Almost no plasma fospropofol was detected"}, {"measurement": "fospropofol Cmax, fold lower than IV", "setting": "[2]; 400 mg PO vs IV", "result": "approximately 88 fold"}, {"measurement": "Tmax", "setting": "[2]; other: intraduodenal, 400 mg ID, read-out: Tmax of fospropofol", "result": 10.2, "unit": "min"}, {"measurement": "bioavailability", "setting": "[2]; other: intraduodenal, 400 mg ID, read-out: absolute bioavailability of fospropofol", "result": 0.1, "unit": "%"}, {"measurement": "half-life", "setting": "[2]; other: intraduodenal, 400 mg ID", "result": 16.8, "unit": "min"}, {"measurement": "half-life", "setting": "[2]; 400 mg IV", "result": 16.8, "unit": "min"}, {"measurement": "Tmax", "setting": "[2]; 400 mg PO, read-out: Tmax of fospropofol", "result": 4.8, "unit": "min"}, {"measurement": "bioavailability", "setting": "[2]; 400 mg PO, read-out: absolute bioavailability of fospropofol", "result": 1, "unit": "%"}, {"measurement": "half-life", "setting": "[2]; 400 mg PO", "result": 19.2, "unit": "min"}, {"measurement": "time stable at −20° C. in rat plasma", "setting": "[3]", "result": 98, "unit": "days"}, {"measurement": "fospropofol (prodrug) in plasma after intranasal administration", "setting": "[4]; 50 mg intranasal", "result": "appreciable plasma concentrations of prodrug"}, {"measurement": "fospropofol in CSF samples", "setting": "[4]; 50 mg intranasal, only two samples", "result": "low nanomolar range"}]}
{"compound": "CC(C)c1cccc(C(C)C)c1O", "note": "[propofol, 2,6-diisopropylphenol]", "values": [{"measurement": "bioavailability", "setting": "[1]; male, Sprague-Dawley, rat, plasma", "result": "~100", "unit": "%"}, {"measurement": "bioavailability", "setting": "[1]; male, Sprague-Dawley, rat, plasma, po", "result": "20 to 70", "unit": "%"}, {"measurement": "bioavailability", "setting": "[1]; [9]", "result": "≥ 70", "unit": "%"}, {"measurement": "F of propofol (vs 5 mg/kg IV fospropofol)", "setting": "[1]; fospropofol 20 mg/kg PO", "result": 22.7, "unit": "%"}, {"measurement": "F of propofol (vs 5 mg/kg IV fospropofol)", "setting": "[1]; fospropofol 30 mg/kg ID", "result": 47.3, "unit": "%"}, {"measurement": "F of propofol (vs 5 mg/kg IV fospropofol)", "setting": "[1]; fospropofol 100 mg/kg ID", "result": 141, "unit": "%"}, {"measurement": "F of propofol (vs 5 mg/kg IV fospropofol)", "setting": "[1]; fospropofol 100 mg/kg PO", "result": 70.5, "unit": "%"}, {"measurement": "bioavailability (F) of propofol based on AUC(0-∞)", "setting": "[2]; fospropofol 400 mg ID", "result": 37, "unit": "%"}, {"measurement": "bioavailability (F) of propofol based on AUC(0-∞)", "setting": "[2]; fospropofol 400 mg oral", "result": 30, "unit": "%"}, {"measurement": "Tmax", "setting": "[2]; other: intraduodenal, fospropofol 400 mg ID", "result": 10.2, "unit": "min"}, {"measurement": "bioavailability", "setting": "[2]; po, 400 mg, summary in discussion", "result": "≥ 30", "unit": "%"}, {"measurement": "Tmax", "setting": "[2]; fospropofol 400 mg PO", "result": 19.8, "unit": "min"}, {"measurement": "time stable at −20° C. in rat plasma", "setting": "[3]", "result": 65, "unit": "days"}, {"measurement": "propofol in plasma samples", "setting": "[4]; 50 mg fospropofol intranasal, up to 2 hr", "result": "not quantifiable"}]}
